According to paper PMC4368888, “Preclinical to Clinical Translation of CNS Transporter Occupancy of TD-9855, a Novel Norepinephrine and Serotonin Reuptake Inhibitor” (International Journal of Neuropsychopharmacology, 2015):
Where “and” joins values, the source holds several entries; their conditions need not be identical. Identical values can stand only once.

Columns and labels:
SERT = SERT (Homo sapiens, UniProt P31645); assay: Human PET SERT occupancy with [11C]-DASB; assay type: in vivo; set-up: from tissue; host or cells: brain of healthy male volunteers, in vivo PET
SERT, sequence (P31645 whole entry): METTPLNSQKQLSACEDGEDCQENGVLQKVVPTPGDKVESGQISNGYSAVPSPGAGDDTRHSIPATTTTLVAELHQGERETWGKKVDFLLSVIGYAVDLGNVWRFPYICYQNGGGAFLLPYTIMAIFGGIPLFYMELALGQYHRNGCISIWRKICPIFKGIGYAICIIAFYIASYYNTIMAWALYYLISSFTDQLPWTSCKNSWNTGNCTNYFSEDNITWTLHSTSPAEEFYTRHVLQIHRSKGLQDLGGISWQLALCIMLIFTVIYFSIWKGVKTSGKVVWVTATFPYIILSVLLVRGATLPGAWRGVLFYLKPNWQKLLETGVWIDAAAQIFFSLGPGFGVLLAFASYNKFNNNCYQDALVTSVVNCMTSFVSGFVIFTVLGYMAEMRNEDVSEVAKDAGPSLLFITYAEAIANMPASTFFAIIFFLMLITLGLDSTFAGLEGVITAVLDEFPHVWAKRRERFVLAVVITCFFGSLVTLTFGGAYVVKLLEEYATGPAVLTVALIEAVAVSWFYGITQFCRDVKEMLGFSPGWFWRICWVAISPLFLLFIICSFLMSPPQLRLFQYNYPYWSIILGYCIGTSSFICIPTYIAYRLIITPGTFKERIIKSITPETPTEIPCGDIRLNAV
Method: This was a Phase 1, open-label, single-dose study in healthy male volunteers to evaluate NET and SERT occupancy in the human brain after oral administration of TD-9855 using PET.
The study was conducted at the Yale PET Center in accordance with the principles of the International Conference on Harmonisation’s Technical Requirements for Registration of Pharmaceuticals for Human Use Guideline for Good Clinical Practice. The protocol was approved by the Yale University Human Investigation Committee and the Yale–New Haven Hospital Radiation Safety Committee. SERT and NET occupancy were determined using the selective radiotracers [^11C]-DASB ([Meyer et al., 2004]; [Takano et al., 2006]; [Abanades et al., 2011]; [Nogami et al., 2013]) and [^11C]-MRB. Selection of the radiotracers and the dose of TD-9855 were flexible to minimize the number of PET scans.
Eligible subjects were enrolled and received either [^11C]-MRB and/or [^11C]-DASB. Each subject underwent up to 5 PET scans over a period of up to 8 days. Multiple dose levels of TD-9855 (up to 20mg) were explored. All randomized subjects received the NET tracer (single-tracer evaluation) and some subjects (n = 3) received both the NET and SERT tracers sequentially (dual-tracer evaluation) in the baseline and post-dose period. […] In the dual-tracer evaluation, subjects completed sequential [^11C]-DASB and [^11C]-MRB baseline scans with each tracer, sequential post-dose scans with each tracer at 7–10hr post-dose, and one follow-up scan with [^11C]-MRB on or between Days 3 and 7. […]
For both studies, binding potentials (BP ND) were estimated using a method based on a reference region input curve. […] The suitability of MRTM2 to estimate [^11C]-MRB BP ND values was evaluated in a previous study ([Hannestad et al., 2010]), in which it was shown that MRTM2 BP ND estimates are highly correlated with BP ND estimated with arterial blood sampling and the multilinear analysis 1 (y = 0.909 x + 0.078, r^2 = 0.821, where x represents the MA1 BP ND values and y represents the MRTM2 BP ND values). […]

rat native DAT = molecular target: T1, rat native DAT (Rattus norvegicus, UniProt P23977); assay: [3H]-DA uptake inhibition in rat striatal synaptosomes; assay type: biochemical; conditions: mean (95% CI), 3 to 9 experiments, read-out: Neurotransmitter Uptake Inhibition: pIC50 DAT (converted)
T1 construct: at human recombinant and rat native monoamine transporters; from tissue; host or cells: rat striatal synaptosomes
T1 sequence (P23977 whole entry): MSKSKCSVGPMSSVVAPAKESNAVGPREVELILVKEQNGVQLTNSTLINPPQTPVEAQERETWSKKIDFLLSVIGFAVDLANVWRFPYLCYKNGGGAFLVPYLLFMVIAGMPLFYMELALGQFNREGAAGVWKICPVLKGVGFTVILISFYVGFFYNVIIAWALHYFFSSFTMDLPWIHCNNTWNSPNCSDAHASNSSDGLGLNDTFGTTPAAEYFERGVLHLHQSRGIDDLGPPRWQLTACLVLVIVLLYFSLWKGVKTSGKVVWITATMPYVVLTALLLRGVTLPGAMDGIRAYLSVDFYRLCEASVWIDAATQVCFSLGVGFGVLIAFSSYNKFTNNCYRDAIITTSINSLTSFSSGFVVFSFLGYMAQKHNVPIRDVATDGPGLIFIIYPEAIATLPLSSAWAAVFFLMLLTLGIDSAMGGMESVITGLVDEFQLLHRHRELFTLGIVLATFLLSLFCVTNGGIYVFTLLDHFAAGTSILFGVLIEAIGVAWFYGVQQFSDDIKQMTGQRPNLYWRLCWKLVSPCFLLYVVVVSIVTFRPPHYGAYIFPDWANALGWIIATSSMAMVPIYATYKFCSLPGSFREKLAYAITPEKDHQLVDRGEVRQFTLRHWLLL
Description: The in vitro pharmacology of TD-9855 (4-[2-(2, 4, 6-trifluorophenoxymethyl)phenyl]piperidine; Figure 1) at human recombinant and rat native monoamine transporters was characterized as described previously ([Tsuruda et al., 2010]; [Shen et al., 2013]). Radioligands were sourced commercially (Perkin Elmer Life Sciences or GE Healthcare Life Sciences). Briefly, membranes prepared from HEK293 (Human Embryonic Kidney 293) cells stably-transfected with human recombinant SERT (HEK293-hSERT), NET (HEK293-hNET), or DAT ([…]) were incubated for 1hr at 22°C in the absence, or presence, of TD-9855 and [^3H]-citalopram (1.0nM) for SERT, [^3H]-nisoxetine (2.0nM) for NET, and [^3H]-WIN35428 (3.0nM) for DAT in 50mM Tris-HCl, 120mM NaCl, 5mM KCl, 0.025% BSA, 100 μM ascorbic acid, pH 7.4. Rat cortical membrane preparations were incubated with [^3H]-citalopram (2.0nM) for SERT or [^3H]-nisoxetine (4.0nM) for NET for 1hr at 22°C. […] Binding and uptake assays were terminated by rapid filtration and radioactivity, determined by liquid scintillation spectroscopy.

## Fc1cc(F)c(OCc2ccccc2C2CCNCC2)c(F)c1 [TD-9855, 4-[2-(2,4,6-trifluorophenoxymethyl)phenyl]piperidine]
SERT; 20mg single oral dose, Day 1, mean ± SD, n = 3, at plasma level 6.35ng/mL
  average SERT occupancy: 25 (±8) %
SERT; 20 mg single oral dose, individual subjects, rApp ± SE, listed as TH-9855
  Apparent SERT Occupancy Day 1: 15.5±2.6% and 29.1±2.2% and 30.5±3.1%
SERT; single dose of 20mg, n = 3
  levels of SERT occupancy across subjects: 15–30%
Rat native DAT
  IC50: 126 nM
